ChEMBL document CHEMBL6114985, “From Dyrk1A inhibitors to a novel class of antiviral agents: Targeting Enterovirus EV-A71 with 2-aryl-substituted thiophene scaffolds” (Eur J Med Chem, 2025)

How the values were obtained:
Enterovirus A71 [1] = experiment: Antiviral activity against Enterovirus A71 TW/2231/98 infected in human RD cells assessed as reduction in cytopathic effect incubated for 3 days; assay type: functional, organism-based; details: Enterovirus A, TW/2231/98, RD, 72 h
[2] = Cytotoxicity against human RD cells assessed as reduction in cell growth incubated for 3 days by MTT assay; assay type: toxicity, cell-based; details: time 3 day
[3] = Selectivity index, ratio of CC50 for human RD cells to EC50 for antiviral activity against enterovirus A71 TW/2231/98 infected in human RD cells; assay type: toxicity, cell-based; details: read-out: Ratio CC50/EC50
Enterovirus A71 [4] = experiment: Antiviral activity against Enterovirus A71 2231 assessed as reduction in viral replication; assay type: functional, organism-based; details: Enterovirus A
Enterovirus A71 [5] = experiment: Antiviral activity against Enterovirus A71 4798 assessed as reduction in viral replication; assay type: functional, organism-based; details: Enterovirus A
enterovirus D68 [6] = experiment: Antiviral activity against Enterovirus D68 2795 assessed as reduction in viral replication; assay type: functional, organism-based; details: Enterovirus D
enterovirus D68 [7] = experiment: Antiviral activity against Enterovirus D68 KY 18953 assessed as reduction in viral replication; assay type: functional, organism-based; details: Enterovirus D
Coxsackievirus = experiment: Antiviral activity against Coxsackievirus assessed as reduction in viral replication; assay type: functional, organism-based
Human rhinovirus sp. = experiment: Antiviral activity against Human rhinovirus 71803 assessed as reduction in viral replication; assay type: functional, organism-based
Influenza A virus = experiment: Antiviral activity against influenza A virus assessed as reduction in viral replication; assay type: functional, organism-based
[8] = molecular target: Dual specificity tyrosine-phosphorylation-regulated kinase 1A (Homo sapiens, UniProt Q13627); experiment: Inhibition of DYRK1A (unknown origin) at 25 uM incubated for 1 hr relative to control
[9] = Lipophilicity, logD of compound by UPLC-MS analysis; assay type: physicochemical; details: octanol/water
[10] = Metabolic stability in mouse liver microsome assessed as half life incubated for 120 mins by HPLC-MS/MS; assay type: ADME; details: liver microsomes
[11] = Metabolic stability in mouse liver microsome assessed as intrinsic clearance incubated for 120 mins by HPLC-MS/MS; assay type: ADME; details: liver microsomes, read-out: CLH
[12] = Metabolic stability in human liver microsome assessed as half life incubated for 120 mins by HPLC-MS/MS; assay type: ADME; details: liver microsomes
[13] = Metabolic stability in human liver microsome assessed as intrinsic clearance incubated for 120 mins by HPLC-MS/MS; assay type: ADME; details: liver microsomes, read-out: CLH
[14] = Stability in mouse plasma assessed as half life by HPLC-MS/MS; assay type: ADME, cell-free
[15] = Stability in human plasma assessed as half life by HPLC-MS/MS; assay type: ADME, cell-free
[16] = Plasma protein binding in mouse by rapid equilibrium dialysis based HPLC-MS/MS analysis; assay type: ADME, cell-free; details: read-out: PPB (converted)
[17] = Plasma protein binding in human by rapid equilibrium dialysis based HPLC-MS/MS analysis; assay type: ADME, cell-free; details: read-out: PPB (converted)
[18] = Cytotoxicity against human A549 cells infected with Human adenovirus; assay type: toxicity, cell-based
[19] = Cytotoxicity against human A549 cells infected with Herpes Simplexvirus; assay type: toxicity, cell-based; details: A549 cells infected with herpes simplex virus
Enterovirus A71 [20] = experiment: Antiviral activity against Enterovirus A71 TW/2231/98 infected in human RD cells assessed as inhibition of viral plaque formation at 45 uM incubated for 3 to 5 days by crystal violet staining based plaque reduction assay relative to control; assay type: functional; details: Enterovirus A, TW/2231/98, RD, time 3-5 day
Human adenovirus sp. = experiment: microbe, parasite or virus in culture; details: A549
Herpes Simplexvirus = experiment: microbe, parasite or virus in culture; details: A549

Compound | EC50 (Enterovirus A71 [1]) | CC50 at 72 h [2] | selectivity ratio [3] | also measured
COc1ccc(C(=O)Nc2cncc(-c3cc(-c4cccnc4)cs3)c2)cc1OC | > 10 µM |  |  | 
COc1ccc(F)c(C(=O)Nc2cncc(-c3cn(-c4cccnc4)nn3)c2)c1 | > 10 µM |  |  | 
COc1cccc(C(=O)Nc2cncc(-c3cccs3)c2)c1F | 4.7 µM | 52.8 µM | 11.2 | 
COc1ccc(F)c(S(=O)(=O)Nc2cncc(-c3cccs3)c2)c1 | > 10 µM |  |  | 
CC(C)(C)Oc1ccc(C(=O)Nc2cncc(-c3cc(-c4cccnc4)cs3)c2)cc1 | > 10 µM |  |  | 
COc1ccc(F)c(C(=O)Nc2cncc(-c3cc(-c4ccccc4)cs3)c2)c1 | > 10 µM |  |  | 
COc1ccc(F)c(C(=O)Nc2cncc(-c3cc(-c4cccnc4F)cs3)c2)c1 | 8.7 µM | > 100 µM | > 11.5 | 
O=C(Nc1cncc(-c2cc(-c3cccnc3)cs2)c1)c1ccc(OC(F)(F)F)cc1 | > 10 µM |  |  | 
COc1ccc(F)c(C(=O)Nc2cncc(-c3cc4ccccc4s3)c2)c1 | 8.7 µM | 47.3 µM | 5.4 | 
COc1ccc(F)c(C(=O)Nc2cncc(-c3cc(-c4cn[nH]c4)cs3)c2)c1 | 5.4 µM | 19.6 µM | 3.6 | 
COc1cc(C(=O)Nc2cncc(-c3cc(Br)cs3)c2)ccc1C | > 10 µM |  |  | 
COc1c(F)ccc(C(=O)Nc2cncc(-c3cc(-c4cccnc4)cs3)c2)c1F | > 10 µM |  |  | 
COc1ccc(F)c(C(=O)Nc2cncc(-c3ccccc3)c2)c1 | > 10 µM |  |  | 
COc1cc(OC)cc(C(=O)Nc2cncc(-c3cc(-c4cccnc4)cs3)c2)c1 | > 10 µM |  |  | 
COc1ccc(F)c(C(=O)Nc2ccnc(-c3cccs3)c2)c1 | > 10 µM |  |  | 
O=C(Nc1cncc(-c2cccs2)c1)c1c(F)cc(F)cc1F | 5.4 µM | 45.3 µM | 8.4 | EC50 (Enterovirus A71 [4]): 5.4 µM; EC50 (Enterovirus A71 [5]): 7.3 µM; EC50 (enterovirus D68 [6]): 5 µM; EC50 (enterovirus D68 [7]): 5.4 µM; EC50 (Coxsackievirus): 9.9 µM; EC50 (Human rhinovirus sp.): 7.5 µM; EC50 (Influenza A virus): > 10 µM
COc1ccc(Cl)c(C(=O)Nc2cncc(-c3cc(-c4cccnc4)cs3)c2)c1F | 5.7 µM | > 100 µM | > 17.5 | inhibition [8]: 95%
COc1cccc(C(=O)Nc2cncc(-c3cc(-c4cccnc4)cs3)c2)c1F | 7.2 µM | 21.3 µM | 3 | 
COc1cccc(C(=O)Nc2cncc(-c3cc(Br)cs3)c2)c1F | 8.9 µM |  |  | 
COc1ccc(Cl)c(C(=O)Nc2cncc(-c3cc(-c4cccnc4)cs3)c2)c1 | > 10 µM |  |  | 
COc1ccc(F)c(C(=O)Nc2cncc(-c3cccnc3)c2)c1 | > 10 µM |  |  | 
COc1cc(C(=O)Nc2cncc(-c3cc(-c4cccnc4)cs3)c2)ccc1F | > 10 µM |  |  | 

Compound | EC50 (Enterovirus A71 [1]) | CC50 at 72 h [2] | selectivity ratio [3] | also measured
COc1ccc(F)c(C(=O)Nc2cncc(-c3cc(-c4cccnc4C)cs3)c2)c1 | 9.1 µM | 15.6 µM | 1.7 | 
CCOC(=O)c1ccc(OCCC2CCN(c3ccc(C)nn3)CC2)cc1 [PIRODAVIR] | 0.6 µM | > 10 µM | > 16.7 | 
COc1ccc(F)c(CNc2cncc(-c3cccs3)c2)c1 | > 10 µM |  |  | 
COc1ccc(F)c(C(=O)Nc2cncc(-c3cc(-c4ccncc4)cs3)c2)c1 | > 10 µM |  |  | 
COc1ccc(F)c(C(=O)Nc2cncc(-c3cncs3)c2)c1 | > 10 µM |  |  | 
COc1ccc(F)c(C(=O)Nc2cncc(-c3cc(-c4cnccc4C)cs3)c2)c1 | 9.1 µM | 18.1 µM | 2 | 
COc1ccc(F)c(C(=O)Nc2cncc(-c3ncns3)c2)c1 | > 10 µM |  |  | 
COc1ccc(F)c(C(=O)Nc2cncc(-c3nccs3)c2)c1 | > 10 µM |  |  | 
COc1ccc(F)c(C(=O)Nc2cncc(-c3cccs3)n2)c1 | > 10 µM |  |  | 
COc1ccc(F)c(C(=O)N(C)c2cncc(-c3cc(-c4cccnc4)cs3)c2)c1 | > 10 µM |  |  | 
O=C(Nc1cncc(-c2cc(-c3cccnc3)cs2)c1)c1ccc(O)cc1 | > 10 µM | > 10 µM |  | 
COc1ccc(C(=O)Nc2cncc(-c3cc(-c4cccnc4)cs3)c2)c(F)c1 | > 10 µM |  |  | 
COc1ccc(F)c(C(=O)Nc2cc(-c3cccs3)ccn2)c1 | 2.4 µM | 33.5 µM | 14 | inhibition [8]: 4%
COc1ccc(F)c(C(=O)Nc2cncc(-c3cccs3)c2)c1 | 4.3 µM | 75.7 µM | 17.6 | inhibition [8]: 0%; logD [9]: 3.52; half-life [10]: 11 min; microsomal CLint [11]: 127 µL/min/mg; half-life [12]: 31.5 min; microsomal CLint [13]: 44 µL/min/mg; half-life [14]: > 240 min; half-life [15]: > 240 min; fraction unbound [16]: 0.038; fraction unbound [17]: 0.0165; EC50 (Enterovirus A71 [4]): 4.3 µM; EC50 (Enterovirus A71 [5]): 5.5 µM; EC50 (enterovirus D68 [6]): 3.6 µM; EC50 (enterovirus D68 [7]): 3.5 µM; EC50 (Coxsackievirus): 3.9 µM; EC50 (Human rhinovirus sp.): 4.8 µM; EC50 (Influenza A virus): > 10 µM
COc1ccc(C(=O)Nc2cncc(-c3cc(-c4cccnc4)cs3)c2)cc1F | > 10 µM |  |  | 
COc1ccc(F)c(C(=O)Nc2cncc(-c3cc(-c4cccnc4)cs3)c2)c1Cl | 5.2 µM | > 100 µM | > 19.2 | inhibition [8]: 93%; logD [9]: 3.22; half-life [10]: 10 min; microsomal CLint [11]: 137 µL/min/mg; half-life [12]: 25 min; microsomal CLint [13]: 56 µL/min/mg; half-life [14]: > 240 min; half-life [15]: > 240 min; fraction unbound [17]: 0.0029; EC50 (Enterovirus A71 [4]): 5.2 µM; EC50 (Enterovirus A71 [5]): 4 µM; EC50 (enterovirus D68 [6]): 5.1 µM; EC50 (enterovirus D68 [7]): 3.7 µM; EC50 (Coxsackievirus): > 10 µM; EC50 (Human rhinovirus sp.): 6.9 µM
COc1ccc(F)c(C(=O)Nc2cccc(-c3cccs3)n2)c1 | > 10 µM |  |  | 
COc1ccc(F)c(C(=O)Nc2cncc(-c3cc(-c4cccnc4)cs3)c2)c1F | 2.6 µM | 20 µM | 7.7 | inhibition [8]: 81%
COc1ccc2c(c1)[nH]c1c(C)nccc12 [HARMINE] |  |  |  | CC50 [18]: > 20 µM; CC50 [19]: > 20 µM; inhibition at 45 µM (Enterovirus A71 [20]): 40%; EC50 (Human adenovirus sp.): 5.7 µM; EC50 (Herpes Simplexvirus): 3.3 µM
COc1cc(C(=O)Nc2cncc(-c3cccs3)c2)ccc1C | > 10 µM |  |  | 
COc1cc(C(=O)Nc2cncc(-c3cc(-c4cccnc4)cs3)c2)ccc1C | > 10 µM |  |  | 
